Results from patent US20240382465A1, “AROMATIC ACETYLENE DERIVATIVE, AND PREPARATION METHOD THEREFOR AND USE THEREOF” (priority 2021, published 2024).
Values after ≈ are worked out from the molar mass of the structure shown. Where two headings read alike, the source gives them in different places.

Columns and labels:
E. coli ATCC 25922 = assay: Antibacterial activity, MIC by broth microdilution (CLSI); assay type: cell-based; settings: Escherichia coli
Protocol: (§1) The in vitro minimum inhibitory concentration (MIC) was determined in accordance with the CLSI guidelines, and was measured using the broth microdilution method.
(§2) The experimental process is briefly described as follows: The test compound was dissolved in DMSO to prepare a […] stock solution, which was then prepared into 11 twice-diluted 100× high-concentration working solutions (the final concentration of the system was 64 μg/mL-0.06 μg/mL) using DMSO. The strains (K. pneumoniae ATCC13883 and E. coli ATCC 25922) frozen in −80° C. glycerol were inoculated into solid agar medium, placed in an incubator at 35° C. for 18-24 hours of incubation. After the preparation of strains was completed, an appropriate amount of solid plate culture was collected, resuspended in physiological saline, and mixed well. The bacterial suspension was adjusted to a suitable turbidity using a turbidity meter, containing approximately 1×10^8 cfu/mL bacteria. Then the bacterial suspension with the adjusted turbidity was diluted to a bacterial concentration of 5×10^5 cfu/ml using the culture medium for measurement, to complete the preparation of the inoculum solution. 198 μL of the inoculum solution was inoculated into a 96-well plate, and then added with 2 μL of a 100× high-concentration working solution of the compound. Then the 96-well plate was placed at 35° C. for 18 to 24 hours of incubation.

K. pneumoniae ATCC13883 = assay: as above; assay type: cell-based; settings: Klebsiella pneumoniae
Protocol: as §1, §2

[1] = target: recombinant Pseudomonas aeruginosa LpxC (Pseudomonas aeruginosa (strain ATCC 15692 / DSM 22644 / CIP 104116 / JCM 14847 / LMG 12228 / 1C / PRS 101 / PAO1), UniProt P47205); assay: Inhibition of LpxC enzymatic activity (fluorescamine assay); assay type: biochemical
Protocol: The degree of inhibition of the enzymatic activity of recombinant Pseudomonas aeruginosa LpxC by the compounds of the present disclosure under in vitro conditions was determined using the following method.
The experimental procedure is briefly described as follows: The test compound was first dissolved in DMSO to prepare a 10 mM stock solution. The reaction was carried out in a 96-well microplate. First, 20 μL of recombinant Pseudomonas aeruginosa LpxC (purchased from Signalway Antibody, product number AP74647-2) was added to each well, with a final concentration of 5 nM. 5 μL of the compound to be tested was then added, and the compound was diluted 4 times to 8 concentration points with a concentration range of 0.61-10,000 nM. 5 μL of LpxC substrate UDP-3-O—(R-3-hydroxydecanoyl)-GlcNAc (purchased from Biosynth Carbosynth, product number: mu75071) was added, with a final concentration of the substrate of 10 μM. The plate was incubated at 25° C. for 120 minutes. Then 20 μL of 2.0 mg/mL fluorescamine (purchased from sigmaaldrich, product number: F9015, solvent: 1:1 dimethylformamide/acetonitrile) was added to the reaction system, and mixed well for 10 minutes of reaction. Finally, 50 μL of 200 mM sodium phosphate buffer (pH 8.0) was added to terminate the reaction. Reading was carried out using a microplate reader (BMG), and the excitation and emission wavelengths were 390 and 495 nm respectively. By comparing with the fluorescence intensity ratio of the control group ([…]), the percentage inhibition rate of the compound at each concentration was calculated.

[2] = ATCC25922, E. coli ATCC 25922, 35° C., 18 to 24 hours, read-out: MIC(E. coli)
[3] = K. pneumoniae ATCC13883, 35° C., 18 to 24 hours, read-out: MIC(K. Pneumoniae)
[4] = recombinant P. aeruginosa LpxC 5 nM, substrate 10 μM, 25° C., 120 minutes, read-out: IC50

SMILES	MIC (E. coli ATCC 25922; [2])	MIC (K. pneumoniae ATCC13883; [3])	IC50 [1, 4]	MIC (E. coli ATCC 25922; ATCC25922, read-out: MIC(E. coli))	MIC (K. pneumoniae ATCC13883; ATCC13883, read-out: MIC(K. Pneumoniae))	IC50 [1]
CNC(=O)c1ccc(C#Cc2ccc(-c3cc(Cn4ccnc4[C@H](C)O)no3)cc2)cc1 [Example 43, (S)-4-((4-(3-((2-(1-hydroxyethyl)-1H-imidazol-1-yl)methyl)isoxazol-5-yl)phenyl)ethynyl)-N-methylbenzamide]	1 µg/mL (≈ 2.34 µM)	8 µg/mL (≈ 18.8 µM)	36.7 nM	–	–	–
C[C@H](O)c1nccn1Cc1cc(-c2ccc(C#Cc3ccc(CNCC(N)=O)nc3)cc2)on1 [Example 61]	1 µg/mL (≈ 2.19 µM)	4 µg/mL (≈ 8.76 µM)	74.2 nM	–	–	–
C[C@H](O)c1nccn1Cc1cc(-c2ccc(C#Cc3ccc(C(O)CO)cc3)cc2)on1 (stereo partly drawn) [Example 30, 1-(4-((4-(3-((2-((S)-1-hydroxyethyl)-1H-imidazol-1-yl)methyl)isoxazol-5-yl)phenyl)ethynyl)phenyl)ethane-1,2-diol]	0.5 µg/mL (≈ 1.16 µM)	1 µg/mL (≈ 2.33 µM)	12.7 nM	–	–	–
C[C@H](O)c1nccn1Cc1cc(-c2ccc(C#Cc3ccc(CN4CCC(CO)CC4)cc3)cc2)on1 [Example 56, (S)-1-(1-((5-(4-((4-((4-(hydroxymethyl)piperidin-1-yl)methyl)phenyl)ethynyl)phenyl)isoxazol-3-yl)methyl)-1H-imidazol-2-yl)ethan-1-ol]	2 µg/mL (≈ 4.03 µM)	4 µg/mL (≈ 8.05 µM)	14.7 nM	–	–	–
C[C@H](O)c1nccn1Cc1cc(-c2ccc(C#Cc3ccc(CN4CCS(=O)(=O)CC4)cc3)cc2)on1 [Example 50, (S)-4-(4-((4-(3-((2-(1-hydroxyethyl)-1H-imidazol-1-yl)methyl)isoxazol-5-yl)phenyl)ethynyl)benzyl)thiomorpholine 1,1-dioxide]	2 µg/mL (≈ 3.87 µM)	4 µg/mL (≈ 7.74 µM)	22.2 nM	–	–	–
C[C@H](O)c1nccn1Cc1cc(-c2ccc(C#Cc3ccc(OCCO)cc3)cc2)on1 [Example 29, (S)-1-(1-((5-(4-((4-(2-hydroxyethoxy)phenyl)ethynyl)phenyl)isoxazol-3-yl)methyl)-1H-imidazol-2-yl)ethan-1-ol]	–	–	14 nM	0.25 µg/mL (≈ 0.582 µM)	0.25 µg/mL (≈ 0.582 µM)	–
C[C@H](O)c1nccn1Cc1cc(-c2ccc(C#Cc3cccnc3)cc2)on1 [Example 9, (S)-1-(1-((5-(4-(pyridin-3-ylethynyl)phenyl)isoxazol-3-yl)methyl)-1H-imidazol-2-yl)ethan-1-ol]	1 µg/mL (≈ 2.7 µM)	2 µg/mL (≈ 5.4 µM)	27.1 nM	–	–	–
C[C@H](O)c1nccn1Cc1cc(-c2ccc(C#Cc3ccc(CN4CCNC(=O)C4)cc3)cc2)on1 [Example 54, (S)-4-(4-((4-(3-((2-(1-hydroxyethyl)-1H-imidazol-1-yl)methyl)isoxazol-5-yl)phenyl)ethynyl)benzyl)piperazin-2-one]	2 µg/mL (≈ 4.15 µM)	4 µg/mL (≈ 8.31 µM)	16.2 nM	–	–	–
C[C@H](O)c1nccn1Cc1cc(-c2ccc(C#Cc3ccc(CO)cc3)cc2)on1 [Example 46, (S)-1-(1-((5-(4-((4-(hydroxymethyl)phenyl)ethynyl)phenyl)isoxazol-3-yl)methyl)-1H-imidazol-2-yl)ethan-1-ol]	0.25 µg/mL (≈ 0.626 µM)	0.5 µg/mL (≈ 1.25 µM)	23 nM	–	–	–
C[C@H](O)c1nccn1Cc1cc(-c2ccc(C#Cc3ccc(CN4CC(C(N)=O)C4)cc3)cc2)on1 [Example 53, (S)-1-(4-((4-(3-((2-(1-hydroxyethyl)-1H-imidazol-1-yl)methyl)isoxazol-5-yl)phenyl)ethynyl)benzyl)azetidin-3-carboxamide]	1 µg/mL (≈ 2.08 µM)	4 µg/mL (≈ 8.31 µM)	13.7 nM	–	–	–
C[C@H](O)c1nccn1Cc1cc(-c2ccc(C#Cc3ccc(CNCCS(C)(=O)=O)cc3)cc2)on1 [Example 49, (S)-1-(1-((5-(4-((4-(((2-(methylsulfonyl)ethyl)amino)methyl)phenyl)ethynyl)phenyl)isoxazol-3-yl)methyl)-1H-imidazol-2-yl)ethan-1-ol]	1 µg/mL (≈ 1.98 µM)	4 µg/mL (≈ 7.93 µM)	–	–	–	11.1 nM
CCOC(=O)CC1CN(Cc2ccc(C#Cc3ccc(-c4cc(Cn5ccnc5[C@H](C)O)no4)cc3)cc2)C1 [Example 111, Ethyl (S)-2-(1-(4-((4-(3-((2-(1-hydroxyethyl)-1H-imidazol-1-yl)methyl)isoxazol-5-yl)phenyl)ethynyl)benzyl)azetidin-3-yl)acetate]	1 µg/mL (≈ 1.91 µM)	1 µg/mL (≈ 1.91 µM)	8.59 nM	–	–	–
C[C@H](O)c1nccn1Cc1cc(-c2ccc(C#Cc3cccc(OCC#N)c3)cc2)on1 [Example 38, (S)-2-(3-((4-(3-((2-(1-hydroxyethyl)-1H-imidazol-1-yl)methyl)isoxazol-5-yl)phenyl)ethynyl)phenoxy)acetonitrile]	0.5 µg/mL (≈ 1.18 µM)	1 µg/mL (≈ 2.36 µM)	50.8 nM	–	–	–
C[C@H](O)c1nccn1Cc1cc(-c2ccc(C#Cc3ccc(OC4CCN(C)CC4)cc3)cc2)on1 [Example 44, (S)-1-(1-((5-(4-((4-((1-methylpiperidin-4-yl)oxy)phenyl)ethynyl)phenyl)isoxazol-3-yl)methyl)-1H-imidazol-2-yl)ethan-1-ol]	2 µg/mL (≈ 4.14 µM)	8 µg/mL (≈ 16.6 µM)	18.6 nM	–	–	–
C[C@H](O)c1nccn1Cc1cc(-c2ccc(C#Cc3ccc(CNCCS(C)(=O)=O)nc3)cc2)on1 [Example 59, (S)-1-(1-((5-(4-((6-(((2-(methylsulfonyl)ethyl)amino)methyl)pyridin-3-yl)ethynyl)phenyl)isoxazol-3-yl)methyl)-1H-imidazol-2-yl)ethan-1-ol]	2 µg/mL (≈ 3.96 µM)	8 µg/mL (≈ 15.8 µM)	21.8 nM	–	–	–
C[C@H](O)c1nccn1Cc1cc(-c2ccc(C#Cc3ccc(CC(=O)O)nc3)cc2)on1 [Example 39, (S)-2-(5-((4-(3-((2-(1-hydroxyethyl)-1H-imidazol-1-yl)methyl)isoxazol-5-yl)phenyl)ethynyl)pyridin-2-yl)acetic acid]	0.5 µg/mL (≈ 1.17 µM)	1 µg/mL (≈ 2.33 µM)	19.9 nM	–	–	–
C[C@H](O)c1nccn1Cc1cc(-c2ccc(C#Cc3cccc(OCC(N)=O)c3)cc2)on1 [Example 64, (S)-2-(3-((4-(3-((2-(1-hydroxyethyl)-1H-imidazol-1-yl)methyl)isoxazol-5-yl)phenyl)ethynyl)phenoxy)acetamide]	4 µg/mL (≈ 9.04 µM)	2 µg/mL (≈ 4.52 µM)	21.6 nM	–	–	–
C[C@H](O)c1nccn1Cc1cc(-c2ccc(C#Cc3ccc(OCCCN4CCOCC4)cc3)cc2)on1 [Example 75, (S)-1-(1-((5-(4-((4-(3-morpho-linopropoxy)phenyl)ethynyl)phenyl)isoxazol-3-yl)methyl)-1H-imidazol-2-yl)ethan-1-ol]	1 µg/mL (≈ 1.95 µM)	2 µg/mL (≈ 3.9 µM)	61.2 nM	–	–	–
C[C@H](O)c1nccn1Cc1cc(-c2ccc(C#Cc3ccc(C(N)=O)nc3)cc2)on1 [Example 28, (S)-5-((4-(3-((2-(1-Hydroxyethyl)-1H-imidazol-1-yl)methyl)isoxazol-5-yl)phenyl)ethynyl)picolinamide]	1 µg/mL (≈ 2.42 µM)	2 µg/mL (≈ 4.84 µM)	–	–	–	19.9 nM
C[C@H](O)c1nccn1Cc1cc(-c2ccc(C#Cc3ccc(OCC4CCN(C)CC4)cc3)cc2)on1 [Example 76, (S)-1-(1-((5-(4-((4-((1-methylpiperidin-4-yl)methoxy)phenyl)ethynyl)phenyl)isoxazol-3-yl)methyl)-1H-imidazol-2-yl) ethan-1-ol]	8 µg/mL (≈ 16.1 µM)	–	12.9 nM	–	–	–
C[C@H](O)c1nccn1Cc1cc(-c2ccc(C#Cc3cccc(CCC(=O)O)c3)cc2)on1 [Example 109, (S)-3-(3-((4-(3-((2-(1-hydroxyethyl)-1H-imidazol-1-yl)methyl)isoxazol-5-yl)phenyl)ethynyl)phenyl)propanoic acid]	4 µg/mL (≈ 9.06 µM)	–	23.4 nM	–	–	–
C[C@H](O)c1nccn1Cc1cc(-c2ccc(C#Cc3ccc(C(=O)NCCC(=O)O)cc3)cc2)on1 [Example 73, (S)-3-(4-((4-(3-((2-(1-hydroxyethyl)-1H-imidazol-1-yl)methyl)isoxazol-5-yl)phenyl)ethynyl)benzamido)propanoic acid]	8 µg/mL (≈ 16.5 µM)	–	33.1 nM	–	–	–
